Measured values as given in publication PMC6382835, “A critical evaluation of TRPA1-mediated locomotor behavior in zebrafish as a screening tool for novel anti-nociceptive drug discovery” (Scientific Reports, 2019).

Experiments:
[1] = target: T1, mouse TRPA1 (mTRPA1) (Mus musculus, UniProt Q8BLA8); assay: FLIPR calcium signaling assay in mTRPA1-transfected HEK293 cells; format: cell-based; conditions: Schild plot against ASP7663-induced calcium influx, mTRPA1
T1 construct: host or cells: HEK293 (ATCC CRL-1573), transient transfection
Method: HEK293 cells (#CRL-1573, ATCC, VA, USA) were cultured in DMEM media (#11995-065, Sigma-Aldrich, MO, USA) with 10% Fetal Bovine Serum (#F0926-500ML, Thermo Fisher, MA, USA). The cells were maintained in a 37 °C incubator with consistent 5% CO2. They were seeded in a clear 6 well flat bottom cell culture plates (#07-200-83, Corning ®, Thermo Fisher) with 500,000 cells/2 ml/well for transfection, in serum-free Opti-MEM (#31985070, Gibco®, Thermo Fisher). These cells were transfected with pcDNA3.1-mTRPA1 (#MR227099, OriGene, MD, USA), pcDNA3.1-zTRPA1a, or pcDNA3.1-zTRPA1b (a gift from Dr. David Prober) using X-tremeGENE^TM 9 (#6365809001, Sigma-Aldrich). After 24 hours, the transfected cells were dislodged with trypsin, resuspended in Opti-MEM, and seeded 25,000 cells/25 µl/well in 384-well black polystyrene microplates (#82051-296, VWR, PA, USA) for testing calcium signaling the following day. Experiments were carried out with the approval of the Institutional Biohazard Committee (#13-013-16).
Twenty-five µl calcium sensitive Fluorescent Imaging Plate Reader (FLIPR) Calcium 6 assay dye (#R8190, Molecular Devices, CA, USA) was added to each well of a 384-well plate containing HEK293 cells transiently expressing mTRPA1, zTRPA1a, and zTRPA1b, respectively. The cells were incubated for an hour prior to the recording of intracellular calcium levels in a FlexStation3 Multi-Mode Microplate Reader (#R8190, Molecular Devices) as previously described. All compounds were diluted in calcium buffer made with 1x HBSS (#14025-092, Thermo Fisher), 20 mM HEPES (#15630-080, Thermo Fisher), and 2.5 mM Probenecid (#P8761, Sigma-Aldrich). For agonist studies, ASP7663 (#5178, Tocris, Bristol, UK) was diluted in 1% DMSO-containing calcium buffer at desired concentrations and was added during the recording. The TRPA1 antagonists HC-030031 (#2896, Tocris), TCS-5861528 (#3938, Tocris), and A-967079 (#4716, Tocris) were diluted in calcium buffer, and 5 µl of 10x solutions were added 10 minutes prior to the recording. The same amount of DMSO (1%) was added to all control groups to maintain similar DMSO levels with the experimental groups. During the assay, the cells were challenged by a 5x ASP7663 solution or 1% DMSO solution at the 20 seconds time point, and both solutions were diluted in calcium buffer. Relative fluorescence units (RFU) were measured for 120 seconds period by the Flexstation. Area under the curve (AUC) was further evaluated from individual calcium influx data (Supplemental Figs 2 and 4) to plot does-response curve of antagonists. For each specific antagonist concentration we plotted Log(dose ratio-1) against the antagonist concentration in a Schild plot. The dose ratio (A’/A) equals the EC50 of the agonist ([…]) in the presence of a concentration of the antagonist (A’) divided by the EC50 of the agonist in the absence of antagonist (A). The x-intercept of the Schild plot was used to identify the antagonist-receptor affinity (pA2).
All data are presented as means ± standard error of the mean (SEM). For our in vitro statistical analysis, AUC of calcium influx (RFU) was measured to plot dose-response curves, which were further analyzed by nonlinear regression analysis. Mean RFU of the first 10 seconds was used as a baseline of the AUC. EC50 values of the dose-response curves were further used to plot Schild curves, and the curves were analyzed with linear regression analysis. For the mice von Frey test, mechanical thresholds were analyzed with two-way ANOVA followed by a Bonferonni test for multiple comparison analysis. For the zebrafish behavior test, the data from the first five seconds following drug administration were excluded, as zebrafish displacement during that period was highly influenced by liquid dispensing. AUC of all curves were measured and analyzed by one-way ANOVA. The post-hoc analysis was conducted with the Tukey’s or Dunnett’s multiple comparisons unless it stated otherwise. […]

[2] = test system: rat TRPA1; design: method as in PMID 21402443; conditions: cited from earlier work

T1 sequence (Q8BLA8 whole entry): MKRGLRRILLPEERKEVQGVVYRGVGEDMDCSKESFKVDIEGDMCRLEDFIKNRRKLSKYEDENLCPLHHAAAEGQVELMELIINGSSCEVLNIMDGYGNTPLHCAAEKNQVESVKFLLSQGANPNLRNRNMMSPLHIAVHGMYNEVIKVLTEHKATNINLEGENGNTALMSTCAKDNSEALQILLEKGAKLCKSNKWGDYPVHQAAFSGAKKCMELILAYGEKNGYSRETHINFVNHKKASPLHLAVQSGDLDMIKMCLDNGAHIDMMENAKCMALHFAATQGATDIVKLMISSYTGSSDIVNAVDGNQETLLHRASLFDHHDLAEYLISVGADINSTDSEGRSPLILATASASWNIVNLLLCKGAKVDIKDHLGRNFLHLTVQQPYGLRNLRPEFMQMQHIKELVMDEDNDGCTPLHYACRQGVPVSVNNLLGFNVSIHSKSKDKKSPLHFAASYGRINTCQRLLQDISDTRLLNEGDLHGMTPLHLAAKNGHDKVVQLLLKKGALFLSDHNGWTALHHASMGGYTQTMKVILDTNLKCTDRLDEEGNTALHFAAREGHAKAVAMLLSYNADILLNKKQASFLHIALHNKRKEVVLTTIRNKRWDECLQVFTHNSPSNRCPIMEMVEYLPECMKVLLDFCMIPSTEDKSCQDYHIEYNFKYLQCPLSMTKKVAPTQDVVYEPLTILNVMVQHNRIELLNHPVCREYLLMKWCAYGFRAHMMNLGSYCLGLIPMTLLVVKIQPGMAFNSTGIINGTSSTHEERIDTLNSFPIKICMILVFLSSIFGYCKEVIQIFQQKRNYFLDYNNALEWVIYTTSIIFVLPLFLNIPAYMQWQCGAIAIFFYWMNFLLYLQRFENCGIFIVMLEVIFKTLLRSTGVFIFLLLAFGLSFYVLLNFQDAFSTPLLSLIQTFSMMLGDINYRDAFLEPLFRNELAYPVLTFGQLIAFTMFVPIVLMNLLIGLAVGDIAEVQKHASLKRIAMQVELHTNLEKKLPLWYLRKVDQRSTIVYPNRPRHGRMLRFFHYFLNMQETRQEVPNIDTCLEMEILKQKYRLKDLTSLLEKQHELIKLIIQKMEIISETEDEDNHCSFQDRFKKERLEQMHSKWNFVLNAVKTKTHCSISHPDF

Compound | pA2 [1] | pA2 expressed in µM [1] [µM] | IC50 [2] [nM] | fold stronger than HC-030031 [2]
CCC(=N\O)/C(C)=C/c1ccc(F)cc1 [A-967076] | 7.0 ± 0.3 | 0.09 | 289 | about 25 fold
CCC(C)c1ccc(NC(=O)Cn2cnc3c2c(=O)n(C)c(=O)n3C)cc1 (stereo not drawn) [TCS-5861528] | 5.34 ± 0.2 | 4.6 |  | 
